Data as given in patent US20240122930A1, “INTEGRIN INHIBITORS AND USES THEREOF IN COMBINATION WITH OTHER AGENTS” (Pliant Therapeutics, Inc., priority 2022, published 2024).
Like-named read-outs stand apart in the source and are kept apart here.

Test system: participants with idiopathic pulmonary fibrosis (IPF)
[1] = 40 mg (n = 22), 12 weeks, listed as Cmpd 5
[2] = 80 mg (n = 23), 12 weeks, listed as Cmpd 5
[3] = 160 mg (n = 22), 12 weeks, listed as Cmpd 5
[4] = 320 mg (n = 22), treatment up to 40 weeks

Text: The groups were stratified for the use of nintedanib or pirfenidone. The groups were screened 28 days before the Day 1 of the study. At Day 1, baseline values were collected. During week 12, the subjects received the last dose, and the study was ended at week 14. Primary and secondary endpoints of the study included safety, tolerability, and PK. Exploratory endpoints included change in FVC over 12 weeks; High Resolution CT-based Quantitative Lung Fibrosis (QLF) imaging; patient-reported outcome (PRO): VAS-cough severity; and effect on selected biomarkers.
The groups were stratified for the use of nintedanib or pirfenidone. The screening was done 28 days before Day 1 and the baseline was measured on Day 1. The last dose was on Week 12, and the end of study was on Week 14. The primary and secondary endpoints include safety, tolerability, and PK. Exploratory Endpoints include change in Forced Vital Capacity (FVC) over 12 weeks, High Resolution CT-based Quantitative Lung Fibrosis (QLF) imaging, and effect on selected biomarkers.
The groups were stratified for the use of nintedanib or pirfenidone. The groups were screened 28 days before the Day 1 of the study. At Day 1, baseline values were collected. The study was continued up to Week 48. The treatment duration per protocol is at least 24 weeks and at most 48 weeks. For the study, the primary and secondary endpoints evaluated in the trial were safety, tolerability, and pharmacokinetics. The exploratory endpoints evaluated included the change in FVC over 12 and 24 weeks; high Resolution CT-based Quantitative Lung Fibrosis (QLF) imaging; patient-reported cough severity; and effect on selected biomarkers.

## COCCN(CCCCc1ccc2c(n1)NCCC2)CC[C@H](Nc1ncnc2ccccc12)C(=O)O [Compound 5, (S)-4-((2-methoxyethyl) (4-(5,6,7,8-tetrahydro-1,8-naphthyridin-2-yl)butyl)amino)-2-(quinazolin-4-ylamino) butanoic acid]
40 mg (n = 22), 12 weeks
  Any AEs, % of participants: (72.7) %
  Any AEs, participants reporting: 16 n
  Serious TEAE: 1 n
  Serious TEAE related to study drug: 0 n
  Serious TEAE, % of participants: (4.5) %
  TEAE Diarrhea (any causality), % of participants: (9.1) %
  TEAE Diarrhea (any causality), participants reporting: 2 n
  TEAE Diarrhea related to study drug, % of participants: (4.5) %
  TEAE Diarrhea related to study drug, participants reporting: 1 n
  TEAE Leading to Death: 0 n
  TEAE Leading to Early Termination from Study: 0 n
  TEAE Leading to Interruption of Study Drug: 0 n
  TEAE Leading to Withdrawal of Study Drug: 0 n
  TEAE of CTCAE Grade 3 or Higher: 2 n
  TEAE of CTCAE Grade 3 or Higher related to study drug: 0 n
  TEAE of CTCAE Grade 3 or Higher, % of participants: (9.1) %
  TEAE related to study drug: 4 n
  TEAE related to study drug, % of participants: (18.2) %
  TEAE, % of participants: (72.7) %
  TEAE, participants reporting: 16 n
[1]
  Any AEs, % of participants: 72.7%
  Serious TEAE, % of participants: 4.5%
  TEAE Diarrhea (any causality), % of participants: 9.1%
  TEAE Diarrhea related to study drug, % of participants: 4.5%
  TEAE of CTCAE Grade 3 or Higher, % of participants: 9.1%
  TEAE related to study drug, % of participants: 18.2%
  TEAE, % of participants: 72.7%
80 mg (n = 23), 12 weeks
  Any AEs, % of participants: (65.2) %
  Any AEs, participants reporting: 15 n
  Serious TEAE: 0 n
  Serious TEAE related to study drug: 0 n
  TEAE Diarrhea (any causality), % of participants: (21.7) %
  TEAE Diarrhea (any causality), participants reporting: 5 n
  TEAE Diarrhea related to study drug, % of participants: (13.0) %
  TEAE Diarrhea related to study drug, participants reporting: 3 n
  TEAE Leading to Death: 0 n
  TEAE Leading to Early Termination from Study: 0 n
  TEAE Leading to Interruption of Study Drug: 0 n
  TEAE Leading to Withdrawal of Study Drug: 0 n
  TEAE of CTCAE Grade 3 or Higher: 0 n
  TEAE of CTCAE Grade 3 or Higher related to study drug: 0 n
  TEAE related to study drug: 7 n
  TEAE related to study drug, % of participants: (30.4) %
  TEAE, % of participants: (65.2) %
  TEAE, participants reporting: 15 n
[2]
  Any AEs, % of participants: 65.2%
  TEAE Diarrhea (any causality), % of participants: 21.7%
  TEAE Diarrhea related to study drug, % of participants: 13.0%
  TEAE related to study drug, % of participants: 30.4%
  TEAE, % of participants: 65.2%
160 mg (n = 22), 12 weeks
  Any AEs, % of participants: (68.1) %
  Any AEs, participants reporting: 15 n
  Serious TEAE: 2 n
  Serious TEAE related to study drug: 0 n
  Serious TEAE, % of participants: (9.1) %
  TEAE Diarrhea (any causality), % of participants: (22.7) %
  TEAE Diarrhea (any causality), participants reporting: 5 n
  TEAE Diarrhea related to study drug, % of participants: (18.2) %
  TEAE Diarrhea related to study drug, participants reporting: 4 n
  TEAE Leading to Death: 0 n
  TEAE Leading to Early Termination from Study: 0 n
  TEAE Leading to Interruption of Study Drug: 1 n
  TEAE Leading to Interruption of Study Drug, % of participants: (4.5) %
  TEAE Leading to Withdrawal of Study Drug: 0 n
  TEAE of CTCAE Grade 3 or Higher: 2 n
  TEAE of CTCAE Grade 3 or Higher related to study drug: 1 n
  TEAE of CTCAE Grade 3 or Higher related to study drug, % of participants: (4.5) %
  TEAE of CTCAE Grade 3 or Higher, % of participants: (9.1) %
  TEAE related to study drug: 4 n
  TEAE related to study drug, % of participants: (18.2) %
  TEAE, % of participants: (63.6) %
  TEAE, participants reporting: 14 n
[3]
  Any AEs, % of participants: 68.2%
  Serious TEAE, % of participants: 9.1%
  TEAE Diarrhea (any causality), % of participants: 22.7%
  TEAE Diarrhea related to study drug, % of participants: 18.2%
  TEAE Leading to Interruption of Study Drug, % of participants: 4.5%
  TEAE of CTCAE Grade 3 or Higher related to study drug, % of participants: 4.5%
  TEAE of CTCAE Grade 3 or Higher, % of participants: 9.1%
  TEAE related to study drug, % of participants: 18.2%
  TEAE, % of participants: 63.6%
320 mg (n = 21), 12 weeks
  Any AEs, % of participants: 85.7%
  Any AEs, participants reporting: 18 n
  Serious TEAE: 1 n
  Serious TEAE related to study drug: 0 n
  Serious TEAE, % of participants: 4.8%
  TEAE Diarrhea (any causality), % of participants: 14.3%
  TEAE Diarrhea (any causality), participants reporting: 3 n
  TEAE Diarrhea related to study drug, % of participants: 9.5%
  TEAE Diarrhea related to study drug, participants reporting: 2 n
  TEAE Leading to Death: 1 n
  TEAE Leading to Death, % of participants: 4.8%
  TEAE Leading to Early Termination from Study: 3 n
  TEAE Leading to Early Termination from Study, % of participants: 14.3%
  TEAE Leading to Interruption of Study Drug: 1 n
  TEAE Leading to Interruption of Study Drug, % of participants: 4.8%
  TEAE Leading to Withdrawal of Study Drug: 3 n
  TEAE Leading to Withdrawal of Study Drug, % of participants: 14.3%
  TEAE of CTCAE Grade 3 or Higher: 2 n
  TEAE of CTCAE Grade 3 or Higher related to study drug: 0 n
  TEAE of CTCAE Grade 3 or Higher, % of participants: 9.5%
  TEAE related to study drug: 4 n
  TEAE related to study drug, % of participants: 19.0%
  TEAE, % of participants: 81.0%
  TEAE, participants reporting: 17 n
[4]
  Serious TEAE: 2 n
  Serious TEAE related to study drug: 0 n
  Serious TEAE, % of participants: (9.1) %
  TEAE Cough related to study drug: 0 n
  TEAE Cough, % of participants: (13.6) %
  TEAE Cough, participants reporting: 3 n
  TEAE Diarrhea related to study drug: 4 n
  TEAE Diarrhea related to study drug, % of participants: (18.2) %
  TEAE Diarrhea, % of participants: (31.8) %
  TEAE Diarrhea, participants reporting: 7 n
  TEAE Dyspnoea related to study drug: 0 n
  TEAE Dyspnoea, % of participants: (22.7) %
